Reference: patent publication US20100298141A1, “SUBSTITUTED PYRIDINE N-OXIDE HERBICIDES” (E. I. DU PONT DE NEMOURS AND COMPANY, priority 2007, published 2010)

How the values were obtained:
green foxtail = assay: Test C pre-/postemergence test; assay type: in vivo, Setaria viridis
Summary of the method: (§1)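 Test chemicals were formulated with surfactant in a non-phytotoxic solvent and sprayed both on freshly planted seeds (preemergence) and on 1- to 4-leaf plants of 2–18 cm (postemergence). Flooded-paddy pots received compound directly into 3 cm of standing water, maintained for the test.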

redroot pigweed = assay: Test A pre-/postemergence greenhouse test; assay type: in vivo, Amaranthus retroflexus; settings: for Pigweed plant response rating: 0 to 100 scale
Summary of the method: (§2)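 Seeds sown in a loam soil–sand blend got a preemergence directed soil spray of compound in a non-phytotoxic solvent mixture containing surfactant. Postemergence sprays of the same formulation went at the same time onto plants 2–10 cm tall at the one- to two-leaf stage. Injury was scored visually against untreated controls after about ten days in the greenhouse.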

giant foxtail = assay: Test C pre-/postemergence test; assay type: in vivo, Setaria faberii
Summary of the method: as §1

johnsongrass = assay: Test C pre-/postemergence test; assay type: in vivo, Sorghum halepense
Summary of the method: as §1

duck salad = assay: Test C flooded paddy test; assay type: in vivo, Heteranthera limosa; settings: Flood
Summary of the method: (§3)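 Greenhouse pots flooded to 3 cm above soil at time of treatment received compound via the water, which stayed at that level.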

velvetleaf [1] = assay: Test A pre-/postemergence greenhouse test; assay type: in vivo, Abutilon theophrasti; settings: for Velvetleaf plant response rating: 0 to 100 scale
Summary of the method: as §2

Surinam grass = assay: Test C pre-/postemergence test; assay type: in vivo, Brachiaria decumbens
Summary of the method: as §1

common ragweed = assay: Test C pre-/postemergence test; assay type: in vivo, Ambrosia elation
Summary of the method: as §1

wild oat = assay: Test C pre-/postemergence test; assay type: in vivo, Avena fatua
Summary of the method: as §1

barnyardgrass = assay: Test A pre-/postemergence greenhouse test; assay type: in vivo, Echinochloa crus-galli; settings: for Barnyardgrass plant response rating: 0 to 100 scale
Summary of the method: as §2

crabgrass = assay: Test C pre-/postemergence test; assay type: in vivo, Digitaria sanguinalis
Summary of the method: as §1

lambsquarters = assay: Test C pre-/postemergence test; assay type: in vivo, Chenopodium album
Summary of the method: as §1

rice = assay: Test C flooded paddy test; assay type: in vivo, Oryza sativa; settings: Flood
Summary of the method: as §3

eastern black nightshade = assay: Test C pre-/postemergence test; assay type: in vivo, Solanum ptycanthum
Text: Seeds of plant species selected from blackgrass (Alopecurus myosuroides), downy brome (Bromus tectorum), green foxtail (Setaria viridis), Italian ryegrass (Lolium multiflorum), wheat (Triticum aestivum), wild oat (Avena fatua), catchweed bedstraw (Galium aparine), Russian thistle (Salsola kali), […] (Cynodon dactylon), Surinam grass (Brachiaria decumbens), cocklebur (Xanthium strumarium), corn (Zea mays), crabgrass (Digitaria sanguinalis), woolly cupgrass (Eriochloa villosa), giant foxtail (Setaria faberii), Goosegrass (Eleusin indica), johnsongrass (Sorghum halepense), kochia (Kochia scoparia), lambsquarters (Chenopodium album), morningglory (Ipomoea coccinea), eastern black nightshade (Solanum ptycanthum), yellow nutsedge (Cyperus esculentus), pigweed (Amaranthus retroflexus), common ragweed (Ambrosia elation), soybean (Glycine max), common (oilseed) sunflower (Helianthus annuus), and velvetleaf (Abutilon theophrasti) were planted and treated preemergence with test chemicals formulated in a non-phytotoxic solvent mixture which included a surfactant. At the same time, plants selected from these crop and weed species and also winter barley (Hordeum vulgare), canarygrass (Phalaris minor), and chickweed (Stellaria media) were treated with postemergence applications of some of the test chemicals formulated in the same manner. Plants ranged in height from 2 to 18 cm (1- to 4-leaf stage) for postemergence treatments. […] At time of treatment, test pots were flooded to 3 cm above the soil surface, treated by application of test compounds directly to the paddy water, and then maintained at that water depth for the duration of the test. […] A dash (-) response means no test result.

cocklebur = assay: Test C pre-/postemergence test; assay type: in vivo, Xanthium strumarium
Summary of the method: as §1

velvetleaf [2] = assay: Test C pre-/postemergence test; assay type: in vivo, Abutilon theophrasti
Summary of the method: as §1

downy brome = assay: Test C pre-/postemergence test; assay type: in vivo, Bromus tectorum
Summary of the method: as §1

[3] = 62 g ai/ha, Preemergence, scale 0 to 100
[4] = 125 g ai/ha, preemergence, scale 0 (no effect) to 100 (complete control)
[5] = Preemergence, 31 g ai/ha, scale 0 to 100 (0 no effect, 100 complete control)
[6] = preemergence, 250 g ai/ha, scale 0 (no effect) to 100 (complete control)
[7] = Postemergence, 125 g ai/ha, 0 is no effect, 100 is complete control
[8] = Postemergence, 500 g ai/ha, 0 is no effect, 100 is complete control
[9] = Preemergence, 125 g ai/ha, 0 no effect, 100 complete control
[10] = Preemergence, 500 g ai/ha, 0 to 100 scale where 0 is no effect and 100 is complete control
[11] = 31 g ai/ha, scale 0 to 100 (0 no effect, 100 complete control)
[12] = 62 g ai/ha, scale 0 to 100, 0 no effect, 100 complete control, 13 to 15 days
[13] = 125 g ai/ha, scale 0 to 100, 0 no effect, 100 complete control, 13 to 15 days
[14] = 250 g ai/ha, scale 0 to 100, 0 no effect, 100 complete control, 13 to 15 days

With Cn1nc(C(F)(F)F)c(C[S+]([O-])c2cc(Br)cc[n+]2[O-])c1Cl (racemic) [Compound 35] the “Foxtail, Green plant response rating” value (green foxtail; [3]) was 80, the “Foxtail, Green plant response rating” value (green foxtail; [4]) was 100 and the “Plant response rating, Foxtail, Green” value (green foxtail; [5]) was 0. The “Foxtail, Green plant response rating” value (green foxtail; [6]) was 100, the “Pigweed plant response rating” value (redroot pigweed; [7]) was 60 and the “Pigweed plant response rating” value (redroot pigweed; [8]) was 80. The “Pigweed plant response rating” value (redroot pigweed; [9]) was 100, the “Plant response rating, Pigweed” value (redroot pigweed; [10]) was 100 and the “Foxtail, Giant plant response rating” value (giant foxtail; [3]) was 60. For the same compound, the “Foxtail, Giant plant response rating” value (giant foxtail; [4]) was 75, the “Plant response rating, Foxtail, Giant” value (giant foxtail; [5]) was 40 and the “Foxtail, Giant plant response rating” value (giant foxtail; [6]) was 98. For the same compound, the “Johnsongrass plant response rating” value (johnsongrass; [3]) was 90, the “Johnsongrass plant response rating” value (johnsongrass; [4]) was 100 and the “Plant response rating, Johnsongrass” value (johnsongrass; [5]) was 50. For the same compound, the “Johnsongrass plant response rating” value (johnsongrass; [6]) was 100, the “Plant response rating, Ducksalad” value (duck salad; [11]) was 60 and the “Plant response rating, Ducksalad” value (duck salad; [12]) was 60. The “Plant response rating, Ducksalad” value (duck salad; [13]) was 85, the “Plant response rating, Ducksalad” value (duck salad; [14]) was 95 and the “Velvetleaf plant response rating” value (velvetleaf [1]; [7]) was 50. For the same compound, the “Velvetleaf plant response rating” value (velvetleaf [1]; [8]) was 60, the “Velvetleaf plant response rating” value (velvetleaf [1]; [9]) was 30 and the “Plant response rating, Velvetleaf” value (velvetleaf [1]; [10]) was 90. For the same compound, the “Surinam Grass plant response rating” value (Surinam grass; [3]) was 55, the “Surinam Grass plant response rating” value (Surinam grass; [4]) was 100 and the “Plant response rating, Surinam Grass” value (Surinam grass; [5]) was 30. The “Surinam Grass plant response rating” value (Surinam grass; [6]) was 100, the “Ragweed plant response rating” value (common ragweed; [3]) was 0 and the “Ragweed plant response rating” value (common ragweed; [4]) was 50. For the same compound, the “Plant response rating, Ragweed” value (common ragweed; [5]) was 0, the “Ragweed plant response rating” value (common ragweed; [6]) was 85 and the “Oat, Wild plant response rating” value (wild oat; [3]) was 45. The “Oat, Wild plant response rating” value (wild oat; [4]) was 80, the “Plant response rating, Oat, Wild” value (wild oat; [5]) was 10 and the “Oat, Wild plant response rating” value (wild oat; [6]) was 90. For the same compound, the “Barnyardgrass plant response rating” value (barnyardgrass; [7]) was 50, the “Barnyardgrass plant response rating” value (barnyardgrass; [8]) was 80 and the “Barnyardgrass plant response rating” value (barnyardgrass; [9]) was 70. For the same compound, the “Plant response rating, Barnyardgrass” value (barnyardgrass; [10]) was 100, the “Crabgrass, Large plant response rating” value (crabgrass; [3]) was 100 and the “Crabgrass, Large plant response rating” value (crabgrass; [4]) was 100. The “Plant response rating, Crabgrass, Large” value (crabgrass; [5]) was 85, the “Crabgrass, Large plant response rating” value (crabgrass; [6]) was 100 and the “Lambsquarters plant response rating” value (lambsquarters; [3]) was 100. The “Lambsquarters plant response rating” value (lambsquarters; [4]) was 100, the “Plant response rating, Lambsquarters” value (lambsquarters; [5]) was 100 and the “Lambsquarters plant response rating” value (lambsquarters; [6]) was 100. For the same compound, the “Plant response rating, Rice” value (rice; [11]) was 0, the “Plant response rating, Rice” value (rice; [12]) was 0 and the “Plant response rating, Rice” value (rice; [13]) was 0. For the same compound, the “Plant response rating, Rice” value (rice; [14]) was 20, the “Nightshade plant response rating” value (eastern black nightshade; [3]) was 100 and the “Nightshade plant response rating” value (eastern black nightshade; [4]) was 100. For the same compound, the “Plant response rating, Nightshade” value (eastern black nightshade; [5]) was 0, the “Nightshade plant response rating” value (eastern black nightshade; [6]) was 100 and the “Cocklebur plant response rating” value (cocklebur; [3]) was 0. For the same compound, the “Cocklebur plant response rating” value (cocklebur; [4]) was 0, the “Cocklebur plant response rating” value (cocklebur; [6]) was 0 and the “Velvetleaf plant response rating” value (velvetleaf [2]; [3]) was 100. For the same compound, the “Velvetleaf plant response rating” value (velvetleaf [2]; [4]) was 100, the “Plant response rating, Velvetleaf” value (velvetleaf [2]; [5]) was 55 and the “Velvetleaf plant response rating” value (velvetleaf [2]; [6]) was 100. The “Bromegrass, Downy plant response rating” value (downy brome; [3]) was 0, the “Bromegrass, Downy plant response rating” value (downy brome; [4]) was 0 and the “Plant response rating, Bromegrass, Downy” value (downy brome; [5]) was 0. The “Bromegrass, Downy plant response rating” value (downy brome; [6]) was 30.
